Experiments:
Settings in all cases: Membrane
[1] = biological target: Inositol 1,4,5-trisphosphate-gated calcium channel ITPR3 (Rattus norvegicus) (UniProt Q63269); assay: Inositol 1,4,5-trisphosphate receptor activity by residual [3H]- IP3 binding to rat cerebellar membranes by the compound at logC = -6M
[2] = biological target: Inositol 1,4,5-trisphosphate-gated calcium channel ITPR3 (Rattus norvegicus) (UniProt Q63269); assay: Inositol 1,4,5-trisphosphate receptor activity by residual [3H]- IP3 binding to rat cerebellar membranes by the compound at logC = -8M
[3] = biological target: Inositol 1,4,5-trisphosphate-gated calcium channel ITPR3 (Rattus norvegicus) (UniProt Q63269); assay: Inositol 1,4,5-trisphosphate receptor activity by residual [3H]- IP3 binding to rat cerebellar membranes by the compound at logC = -7M
[4] = biological target: Inositol 1,4,5-trisphosphate-gated calcium channel ITPR3 (Rattus norvegicus) (UniProt Q63269); assay: Inositol 1,4,5-trisphosphate receptor activity by residual [3H]- IP3 binding to rat cerebellar membranes by the compound at logC = -9M
[5] = biological target: Inositol 1,4,5-trisphosphate-gated calcium channel ITPR3 (Rattus norvegicus) (UniProt Q63269); assay: Inositol 1,4,5-trisphosphate receptor activity by residual [3H]- IP3 binding to rat cerebellar membranes by the compound at logC = -5M

Sequence of Inositol 1,4,5-trisphosphate-gated calcium channel ITPR3 (Rattus norvegicus) (Q63269 whole entry): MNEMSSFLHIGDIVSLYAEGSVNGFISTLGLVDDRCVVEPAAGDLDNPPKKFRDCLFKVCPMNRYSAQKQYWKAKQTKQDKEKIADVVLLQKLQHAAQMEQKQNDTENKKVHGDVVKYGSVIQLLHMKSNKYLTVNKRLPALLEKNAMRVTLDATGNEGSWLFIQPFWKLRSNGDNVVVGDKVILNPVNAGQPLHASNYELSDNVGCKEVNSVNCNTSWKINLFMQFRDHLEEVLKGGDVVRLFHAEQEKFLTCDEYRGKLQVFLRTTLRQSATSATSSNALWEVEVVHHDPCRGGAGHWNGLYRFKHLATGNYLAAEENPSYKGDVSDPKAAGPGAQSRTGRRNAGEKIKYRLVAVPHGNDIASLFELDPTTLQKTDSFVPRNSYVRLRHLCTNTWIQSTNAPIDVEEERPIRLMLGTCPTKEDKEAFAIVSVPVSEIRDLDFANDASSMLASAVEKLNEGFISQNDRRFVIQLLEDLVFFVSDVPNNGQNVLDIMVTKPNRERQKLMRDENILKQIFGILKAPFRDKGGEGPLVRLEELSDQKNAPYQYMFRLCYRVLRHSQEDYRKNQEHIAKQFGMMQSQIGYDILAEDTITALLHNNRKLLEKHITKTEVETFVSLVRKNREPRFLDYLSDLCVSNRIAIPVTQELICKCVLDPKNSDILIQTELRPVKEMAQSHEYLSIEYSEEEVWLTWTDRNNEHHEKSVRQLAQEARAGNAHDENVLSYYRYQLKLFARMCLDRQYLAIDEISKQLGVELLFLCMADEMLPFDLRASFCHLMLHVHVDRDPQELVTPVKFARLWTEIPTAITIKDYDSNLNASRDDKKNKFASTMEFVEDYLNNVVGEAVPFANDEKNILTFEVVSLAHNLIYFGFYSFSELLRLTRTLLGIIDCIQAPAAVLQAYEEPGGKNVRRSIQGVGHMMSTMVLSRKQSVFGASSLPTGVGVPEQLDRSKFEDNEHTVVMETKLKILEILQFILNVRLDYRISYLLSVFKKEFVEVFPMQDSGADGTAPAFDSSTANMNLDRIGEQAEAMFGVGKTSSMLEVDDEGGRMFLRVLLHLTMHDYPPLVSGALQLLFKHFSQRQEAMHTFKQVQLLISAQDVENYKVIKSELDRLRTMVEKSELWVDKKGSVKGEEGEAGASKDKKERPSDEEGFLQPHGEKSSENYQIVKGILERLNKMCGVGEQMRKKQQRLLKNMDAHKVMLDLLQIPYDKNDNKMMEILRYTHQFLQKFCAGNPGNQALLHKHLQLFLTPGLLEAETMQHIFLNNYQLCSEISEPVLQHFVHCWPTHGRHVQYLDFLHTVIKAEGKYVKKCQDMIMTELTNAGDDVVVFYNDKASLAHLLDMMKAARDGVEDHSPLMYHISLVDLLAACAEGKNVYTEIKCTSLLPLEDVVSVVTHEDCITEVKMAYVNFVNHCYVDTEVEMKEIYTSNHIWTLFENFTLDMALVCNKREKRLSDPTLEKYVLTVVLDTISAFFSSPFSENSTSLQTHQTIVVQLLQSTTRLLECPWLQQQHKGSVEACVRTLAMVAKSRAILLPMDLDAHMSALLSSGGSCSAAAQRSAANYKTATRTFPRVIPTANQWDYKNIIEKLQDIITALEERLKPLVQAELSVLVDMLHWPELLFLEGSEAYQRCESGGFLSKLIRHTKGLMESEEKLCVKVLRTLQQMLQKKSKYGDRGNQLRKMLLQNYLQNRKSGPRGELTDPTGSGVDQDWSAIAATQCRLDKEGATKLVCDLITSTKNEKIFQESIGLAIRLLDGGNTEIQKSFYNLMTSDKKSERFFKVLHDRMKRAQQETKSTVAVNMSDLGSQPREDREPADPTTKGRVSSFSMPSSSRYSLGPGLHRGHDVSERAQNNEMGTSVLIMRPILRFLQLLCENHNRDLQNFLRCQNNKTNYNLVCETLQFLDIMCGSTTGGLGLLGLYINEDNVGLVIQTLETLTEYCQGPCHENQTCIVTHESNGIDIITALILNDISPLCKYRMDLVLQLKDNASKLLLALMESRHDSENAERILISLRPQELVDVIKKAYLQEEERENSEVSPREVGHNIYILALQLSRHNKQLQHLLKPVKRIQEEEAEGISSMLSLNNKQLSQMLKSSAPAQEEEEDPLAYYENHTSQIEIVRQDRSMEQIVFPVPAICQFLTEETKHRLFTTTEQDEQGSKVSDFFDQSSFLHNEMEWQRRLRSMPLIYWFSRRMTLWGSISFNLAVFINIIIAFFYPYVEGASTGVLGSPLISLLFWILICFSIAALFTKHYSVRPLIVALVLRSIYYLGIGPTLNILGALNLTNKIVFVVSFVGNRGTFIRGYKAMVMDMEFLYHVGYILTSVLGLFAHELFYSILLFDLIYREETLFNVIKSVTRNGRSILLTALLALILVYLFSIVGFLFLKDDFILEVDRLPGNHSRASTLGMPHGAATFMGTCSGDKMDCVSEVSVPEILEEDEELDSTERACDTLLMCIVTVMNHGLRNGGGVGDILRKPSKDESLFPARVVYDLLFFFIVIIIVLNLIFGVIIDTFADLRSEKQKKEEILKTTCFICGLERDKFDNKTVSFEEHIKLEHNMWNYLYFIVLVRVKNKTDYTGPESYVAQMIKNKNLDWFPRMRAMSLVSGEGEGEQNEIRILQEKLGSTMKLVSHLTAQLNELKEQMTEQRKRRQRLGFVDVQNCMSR

Row | SMILES | residual activity [1] | residual activity [2] | residual activity [3] | residual activity [4] | residual activity [5]
1 | O=P(O)(O)O[C@@H]1[C@@H](O)[C@H](OP(=O)(O)O)[C@H](O)C[C@H]1OP(=O)(O)O | 20% | 100% | 50% | – | –
2 | O=P(O)(O)O[C@@H]1[C@@H](O)[C@H](OP(=O)(O)O)[C@H](O)C[C@@H]1OP(=O)(O)O | 80% | 110% | 100% | 100% | 40%
3 | O=P(O)(O)O[C@@H]1[C@H](O)[C@@H](O)[C@@H](OP(=O)(O)O)[C@H](OP(=O)(O)O)[C@H]1O | 5% | 70% | 20% | 95% | 5%

Source: ChEMBL document CHEMBL1128623, “Influence of the absolute configuration at C-4 in the binding of d-myoinositol 1,4,5 trisphosphate analogues to IP3 receptor” (Bioorg Med Chem Lett, 1995)
